Measured values from patent publication US6310247A, “7-aryl-6(Z)-heptatrienoic acid retinamides” (Hoffmann-LA Roche Inc., priority 1999, dated 2001).

What was measured:
[1] = test system: NMU-induced mammary tumors; experiment: NMU-induced mammary tumors in Sprague-Dawley rats; type: in vivo, rat; conditions: for Effect on tumors (in words): i.p., tumor size and number; for Number of first tumors with volume relative to day 0: progressed > 100% / Number of first tumors with volume relative to day 0: regressed > 50% / Number of first tumors with volume relative to day 0: static / Number of first tumors: total: 25 mg/kg i.p. q.d.; for No. of first tumors regressing to unpalpable/no. palpable at day 0: 25 mg/kg i.p., 5×/wk for 4 weeks
Source text: Thus, compounds of formula 1 have efficacy against established nitrosomethylurea (NMU)-induced mammary tumors in rats. The induction of invasive mammary-tissue specific tumors in rats by NMU (Gullino et al., 1975) produces primarily estrogen-dependent carcinomas (Arafah et al., 1980) within as little as 4 weeks following a single, low-toxicity dose (McCormick et al., 1981) and results in a high percentage of tumor induction. The properties of the tumors induced in rats by NMU in this experimental model are representative of human mammary carcinoma and are invasive (McCormick et al., 1981).
Materials and Methods, 750 virgin female Sprague-Dawley rats 26 to 32 days of age (Harlan Laboratories) were housed in polycarbonate cages (3 rats/cage) and provided food and water ad libitum. Mammary tumors were induced essentially as previously described (Gullino et al., 1975 and McCormick et al., 1981). At the age of 50+/-3 days, each animal received a single dose (50 mg/kg body weight) of NMU (Sigma, St. Louis, Mo.) in 0.85% sodium chloride acidified to pH 5.0 with acetic acid. The carcinogen was administered with a 26 g needle i.v. via the tail vein in a 0.5 ml volume.
Rats were checked weekly starting 4 weeks after NMU administration for palpable tumors and those bearing at least one mammary tumor, palpable for 11 days or less, were entered into study on day 61 post-NMU administration. Fifteen animals were entered into treatment or control groups. Tumor diameters were measured weekly with calipers along their long and short axes and tumor volume was calculated from the ellipsoid formula, (D×d^2)/2, where D is the long diameter and d is the short diameter. The days on which new palpable tumors arose or on which established tumors disappeared were noted along with anatomical position. Tumors which appeared in the same anatomical location at which a tumor had previously completely regressed were considered to be regrowths of the same tumor. Rats which developed ulcerations of tumors were immediately terminated from studies. All animals entered into groups were weighed daily on weekdays for 6 weeks.
N-(4-hydroxyphenyl)-(2E,4E,6Z)-7-[3,5-bis(trifluoromethyl)phenyl]-3,7-dimethyl-2,4,6-heptatrienamide was prepared in 4% ethanol, 8% PEG400, 7.2% Cremophor RH40 and 80% D5W and administered intraperitoneally in a 2.8 ml volume via a 21 g needle 5 times per week, q.d., for 4 weeks.
For treatment of NMU-induced tumors in rats, solutions of the test compound N-(4-hydroxyphenyl)-(2E,4E,6Z)-7-[3,5-bis(trifluoromethyl)phenyl]-3,7-dimethyl-2,4,6-heptatrienamide were prepared daily in 4% ethanol, 8% PEG400, 7.2% Cremophor RH40 and 80% D5W.

[2] = test system: ER+ and ER- breast carcinoma cells; experiment: Induction of apoptosis in ER+ and ER- carcinoma cells (statements in words); type: cell-based, human; conditions: 24-48 h
Description: 2. Apoptosis: Cell death detection by ELISA:
Compounds of formula 1 were tested for the ability to cause apoptosis as follows:
Cells and media were collected, cells were pelleted, resuspended in 100 μl lysis buffer (50 mM Tris-Cl (pH=8.0), 20 mM EDTA, 1% NP-40e) and incubated 30 minutes at 4° C. to lyse. Cell debris was spun down and an aliquot (30 μl) of the […] was removed for protein determination and stored at -20° C. An additional 280 μl of lysis buffer, was added, mixed thoroughly and spun down at 14,000 RPM for 10 minutes at 4° C. An aliquot was removed (180 μl) and the sample was stored at -20° C. until testing.
A commercially available apoptosis detection kit, obtained from Boehringer Mannheim (Cat. No. 1544-674), was used as per the directions provided with the kit (Cell Death Detection ELISA). […] The assay measures apoptosis by quantifying the amount of nucleosomal fragmentation from the extracts of cells treated with the test compounds (samples). […] The resulting colorimetric change is measured spectrophotometrically at 405/490nm.
The total protein content of each sample was determined for the purpose of normalizing the ELISA values to amount of sample loaded. […] The protein concentrations were calculated based upon a linear regression curve. […]
Relative ELISA O.D. readings are determined by subtracting the ELISA plate background O.D. value. […] A correction coefficient (CC), based on the sample protein concentration compared to no drug control, was determined to correct the sample O.D. following subtraction of the background O.D. (BCS O.D.). The fold increase over no drug control is calculated and normalized to the total protein concentration of the samples by multiplying against the correction coefficient. […]
To determine the total protein concentration of the samples, obtain the total protein concentration in mg/ul calculated using standard linear regression formula (y=mx+b) based on BSA standards. […] Protein concentration (PC)(mg/ml)=(sample absorbance-b)/x. […]

In the case of C/C(=C/C=C/C(C)=C/C(=O)Nc1ccc(O)cc1)c1cc(C(F)(F)F)cc(C(F)(F)F)c1 [N-(4-hydroxyphenyl)-(2E,4E,6Z)-7-[3,5-bis(trifluoromethyl)phenyl]-3,7-dimethyl-2,4,6-heptatrienamide], the “Rats treated that succumbed to toxicity” value ([1]; 25 mg/kg/2.8 ml i.p. q.d., 5×/wk for 4 wks) is reported as 3 of 15, the “Effect on tumors (in words)” value [1] is reported as “decrease both tumor size and tumor number” and the “Effect on tumors (in words)” value ([1]; listed as the tested compound) is reported as “capable of causing existing tumors to shrink, and, in addition, causes the number of tumors to decrease by eliminating first tumors and preventing additional tumors from arising”. The “Number of first tumors with volume relative to day 0: progressed > 100%” value ([1]; week 1, 5×/wk for 4 wks) was 4, the “Number of first tumors with volume relative to day 0: regressed > 50%” value ([1]; week 1, 5×/wk for 4 wks) was 10 and the “Number of first tumors with volume relative to day 0: static” value ([1]; week 1, 5×/wk for 4 wks) was 5. For the same compound, the “Number of first tumors: total” value ([1]; week 1, 5×/wk for 4 wks) was 19, the “No. of first tumors regressing to unpalpable/no. palpable at day 0” value (from here on “No. of first tumors regressing”) ([1]; week 1, ** p < 0.005 vs vehicle) was 7/20 and the “Number of first tumors with volume relative to day 0: progressed > 100%” value ([1]; week 2, 5×/wk for 4 wks) was 6. The “Number of first tumors with volume relative to day 0: regressed > 50%” value ([1]; week 2, 5×/wk for 4 wks) was 8, the “Number of first tumors with volume relative to day 0: static” value ([1]; week 2, 5×/wk for 4 wks) was 5 and the “Number of first tumors: total” value ([1]; week 2, 5×/wk for 4 wks) was 19. The “No. of first tumors regressing” value ([1]; week 2, * p < 0.05 vs vehicle) was 5/19, the “Number of first tumors with volume relative to day 0: progressed > 100%” value ([1]; week 3, 5×/wk for 4 wks) was 6 and the “Number of first tumors with volume relative to day 0: regressed > 50%” value ([1]; week 3, 5×/wk for 4 wks) was 6. The “Number of first tumors with volume relative to day 0: static” value ([1]; week 3, 5×/wk for 4 wks) was 3, the “Number of first tumors: total” value ([1]; week 3, 5×/wk for 4 wks) was 19 and the “No. of first tumors regressing” value ([1]; week 3) was 3/19. The “No. of first tumors regressing” value ([1]; week 4, * p < 0.05 vs vehicle) was 4/19, the “No. of first tumors regressing” value ([1]; week 5) was 4/18 and the “No. of first tumors regressing” value ([1]; week 6, * p < 0.05 vs vehicle) was 5/18. The “Induction of apoptosis (in words)” value [2] was “significant induction of apoptosis”.
